Reference: US20170251655A2, “COMPOSITIONS AND METHODS FOR CAPTURING, KILLING OR REPELLING BED BUGS” (OLFACTOR LABORATORIES, INC., priority 2014, published 2017)
Where a name gives a salt, the structure may show the parent alone.

Assays:
bed bugs [1] = assay: Bed bug luring assay (baited cup, overnight); type: in vivo; conditions: for Attractant Category: category from attractant activity value; for Att Act (attractant activity value): percentage of 10 bed bugs in baited cup, cottonball with 100 microliters compound or combination solution, overnight, dark
Protocol: Assays were conducted to measure the ability of compounds and compound combinations to attract bed bugs. A testing arena habitat comprising a small plastic container was placed inside of a larger, secondary container. The top half inch was removed from two bathroom sized plastic cups and each cup was placed on opposite sides of the testing arena habitat, one inch away from the wall. Each outer part of the cup was textured using sandpaper, as bed bugs cannot climb smooth surfaces. A paper towel was used to line the floor of the testing arena habitat. The top, removed portion of one of the cups was placed mouth side down in the center of the arena. In one of the cups, a cottonball was placed and treated with 100 microliters of compound or compound combination solution [comprising a total of […] of compound(s).] Ten bed bugs were placed within the center cut off cup top and the testing arena habitat was covered and placed within a dark, climate controlled room overnight.
The next day, the number of bed bugs that crawled into the baited cup were recorded and the attractant activity value was calculated. As used herein, the attractant activity value represents the percentage of bugs that crawled into the baited cup as compared to the total number of bed bugs. In the Table, “Att Act” refers to attract activity value.

C. lectularius = conditions: population of C. lectularius isolated in Arkansas; cited from earlier work
bed bugs [2] = conditions: study performed in Africa; cited from earlier work
[3] = system: bed bug (Cimex lectularius); assay: Bed bug threshold assay (mouse bait, treated filter paper on acrylic rod bridges); type: in vivo; conditions: 90 μl isopropyl alcohol + 10 μl testing compound on filter paper; bed bugs crossing treated vs control; mouse as bait; 10 minutes
Protocol: Compounds and blends of the present invention were assayed for their ability to modify bed bug (Cimex lectularius) behavior using a bed bug threshold assay. Three interceptors were laid side by side and acrylic rods were stuck on to the sides with putty so that they went from interceptor to interceptor forming bridges. Paper towels sections of 6 inches by 2 inches were placed so that they hung off of the ends of the acrylic rods to form harborage for bed bugs. Next, 125 mm pieces of Whatman Filter paper treated either with the compound of interest (90 μl isopropyl alcohol+10 μl testing compound) or with control solution of 100 μl isopropyl alcohol were stuck to the top of the acrylic rods with the compound impregnated filter on one rod and control impregnated filter on the other. In the middle interceptor a mouse was placed as bait for the bed bugs. In either outside interceptors 10 bed bugs each were placed in holding dishes, allowed to equilibrate for 10 minutes then released on the harborage. Video footage at 1 second time intervals was obtained for 10 minutes then analyzed for bed bug movements. Repellency of any given compound or blend was calculated by counting how many bed bugs traversed the acrylic rods across either the treated or the control Whatman filter paper. Percent repellency was determined by comparing the number of bed bugs which crossed the treated Whatman filter paper to the number of bed bugs which crossed the control Whatman filter paper.

[4] = system: bed bug (Cimex lectularius); assay: Bed bug repellency assay (filter paper harborage, petri dish); type: in vivo; conditions: statement in the description, test not named
[5] = system: bed bug (Cimex lectularius); assay: as above; type: in vivo; conditions: for % Repellency / Repellency Category: individual compounds; for % Repellency: 10 microliters compound + 90 microliters isopropyl alcohol on filter paper tent, 10 bed bugs, 5 minutes, vs control; for Repellency Category: category from % repellency; for Ind % Rep (percent repellency of the individual compound): values obtained in Example 1 for the individual compound of a blend
Protocol: Compounds and blends of the present invention were assayed for their ability to modify bed bug (Cimex lectularius) behavior using a bed bug repellency assay. This assay takes advantage of the bed bug's natural instinct to seek harborage. Two petri dishes were obtained and the inner areas of each were sanded down (leaving the perimeter smooth.) Talc was applied on the perimeter and on the inside walls of the petri dishes with a small paint brush to prevent bed bugs from escaping. A cut off top portion of a plastic cup was placed upside down in the center of one petri dish to create a holding arena for the bed bugs. A large plastic secondary container was gathered and a paper towel was laid down inside the bottom. The petri dish was then placed inside and ten bed bugs were placed inside the cut off portion of the cup.
Next, two pieces of filter paper were cut down the middle to yield 4 equally sized halves. Three pieces were placed inside a glass dish […] and the remaining piece was placed in a separate dish. All four pieces were folded down the middle to create a “tent” or “harborage” when laid such that the folded crease faced up. 100 microliters of isopropyl alcohol was pipetted into three pieces of filter paper (all housed in the first glass dish.) In a separate 4 ml vial, 90 microliters of isopropyl alcohol was combined and vortexed with 10 microliters of the compound or compound combination being tested. 100 microliters of this solution [comprising a total of […] of compound(s)] was pipetted onto the filter paper in the separate dish. All filter papers were then allowed to dry. Once dry, experiments were conducted first with two filter paper halves comprising only the isopropyl alcohol (control experiment) and then with the remaining filter paper halves [one with only isopropyl alcohol and one comprising the test compound(s).] Filter paper halves were placed on opposing sides of experimental petri dishes and bed bugs were allowed to move freely within the dishes by removal of the plastic cup top. Movement was allowed to continue for 5 minutes before the number bed bugs beneath each filter paper tent was recorded.

Row | Compound | Attractant Category (bed bugs [1]) | Att Act (attractant activity value) (bed bugs [1]) [%] | % Repellency [3] [%] | % Repellency [5] [%] | Repellency Category [5] | other results
1 | COc1nccnc1C [BBC067, 2-methoxy-3-methylpyrazine] | Mild (Compounds or blends with an attractant activity value of 10-20% were categorized as mild attractants) | 10 |  |  |  | 
2 | Clc1ccc(C(c2ccc(Cl)cc2)C(Cl)(Cl)Cl)cc1 [DDT, dichlorodiphenyltrichloroethane] |  |  |  |  |  | LD50 (C. lectularius): 100,000 ppm; bed bug activity level after treatment (bed bugs [2]): higher activity level
3 | COC(=O)CCC(C)=O [BBC049, methyl levulinate] | Mild (Compounds or blends with an attractant activity value of 10-20% were categorized as mild attractants) | 10 |  |  |  | 
4 | CCCC(=O)CCC [BBC057, heptanone-4] |  |  | 38 |  |  | 
5 | COc1ccccc1O [BBC011, guaiacol] |  |  |  |  |  | bed bug repellency, in words [4]: repel bed bugs
6 | CCCOC=O [BBC070, propyl formate] | Moderate (Compounds or blends with an attractant activity value of 20-40% were categorized as moderate attractants) | 30 |  |  |  | 
7 | CC(=O)/C=C/C=C(C)C [BBC014, methyl heptadienone] |  |  | 64 | 87 | Very Strong (compounds with a percent repellency value of 80-100% were categorized as very strong repellents) | 
8 | C=CCc1ccc(O)c(OC)c1 [BBC002, eugenol] |  |  |  |  |  | bed bug repellency, in words [4]: repel bed bugs
9 | COC(/C=C/c1ccccc1)OC [BBC013, cinnamic aldehyde dimethyl acetal] |  |  |  | 90 | Very Strong (compounds with a percent repellency value of 80-100% were categorized as very strong repellents) | 
10 | O=C1CCCC1 [BBC069, cyclopentanone] | Strong (Compounds or blends with an attractant activity value of 40-60% were categorized as strong attractants) | 50 |  |  |  | 
11 | methoxy cinnamic aldehyde [BBC046] |  |  | 92 | 23 | Mild (Compounds with a percent repellency value of 20-40% were categorized as mild repellents) | 
12 | O=CCCc1ccccc1 [BBC005, phenyl propyl aldehyde] |  |  | 74 | 100 | Very Strong (compounds with a percent repellency value of 80-100% were categorized as very strong repellents) | 
13 | N#C/C=C/c1ccccc1 [BBC029, cinnamyl nitrile] |  |  | 92 | 56 | Moderate (Compounds with a percent repellency value of 40-60% were categorized as moderate repellents) | Ind % Rep (percent repellency of the individual compound) [5]: 56%
14 | 2-methoxy-3(5or6) isopropylpyrazine [BBC006] |  |  | 100 | 100 | Very Strong (compounds with a percent repellency value of 80-100% were categorized as very strong repellents) | 
15 | CCCC(C)=O [BBC065, 2-pentanone] | Moderate (Compounds or blends with an attractant activity value of 20-40% were categorized as moderate attractants) | 30 |  |  |  | 
16 | COc1cnccn1 [BBC047, 2-methoxypyrazine] | Moderate (Compounds or blends with an attractant activity value of 20-40% were categorized as moderate attractants) | 30 |  |  |  | 
17 | CSC(C)=O [BBC060, methanethiol acetate] | Moderate (Compounds or blends with an attractant activity value of 20-40% were categorized as moderate attractants) | 20 |  |  |  | 
18 | C/C=C(\C)C=O [BBC062, trans-2-methyl-2-butenal] |  |  |  |  |  | Ind % Rep (percent repellency of the individual compound) [5]: 0%
19 | C/C=C/C(=O)OC [BBC039, methyl crotonate] | Moderate (Compounds or blends with an attractant activity value of 20-40% were categorized as moderate attractants) | 20 |  |  |  | 
20 | COC(Cc1ccccc1)OC [BBC012, phenylacetaldehyde dimethyl acetate] |  |  |  | 100 | Very Strong (compounds with a percent repellency value of 80-100% were categorized as very strong repellents) | 
21 | CCCC1CCC(=O)O1 (stereo not drawn) [BBC021, gamma-heptalactone] |  |  | 91 | 71 | Strong (Compounds with a percent repellency value of 60-80% were categorized as strong repellents) | Ind % Rep (percent repellency of the individual compound) [5]: 71%
22 | CC1=C2CCC(C)CC2OC1=O (stereo not drawn) [BBC054, menthalactone] |  |  | 95 |  |  | 
23 | CCC(=O)OCCC(C)C [BBC051, isoamyl propionate] | Mild (Compounds or blends with an attractant activity value of 10-20% were categorized as mild attractants) | 10 |  |  |  | 
24 | CCCCCCOC=O [BBC035, hexyl formate] | Moderate (Compounds or blends with an attractant activity value of 20-40% were categorized as moderate attractants) | 30 |  |  |  | 
25 | ultrazur [BBC016] |  |  | 64 | 84 | Very Strong (compounds with a percent repellency value of 80-100% were categorized as very strong repellents) | 
